Data as given in US12600740B2, “Fluorinated N-acetyl glucosamine analogs and xylose derivatives” (UTI Limited Partnership, priority 2018, dated 2026).
Entries after “also recorded” stand apart in the source; their conditions may differ. Read-outs that look alike come from different tables or passages of the source.

How the values were obtained:
[1] = tested on: CSPG production by astrocytes; assay: Western blot of astrocyte conditioned medium, MAB2030 (chondroitin sulfate GAG stubs); type: cell-based, mouse; settings: for Reduce CSPG production: astrocytes, significance class
Procedure, shortened: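 Astrocytes (1×10^6 cells/well) were treated with 50 μM compound in AIM-V for 48 h, and pooled conditioned medium was concentrated for Western blot. Samples for MAB2030 were digested overnight at 37° C with 0.2 U/ml chondroitinase ABC; 2H6 blots were undigested. ECL band density was normalized to untreated astrocytes on the same gel.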

mouse astrocytes = assay: Propidium iodide/calcein AM toxicity on astrocytes; type: cell-based; settings: 100 μM, 48 hours
Description: Toxicity on astrocytes was assayed with propidium iodide/calcein AM […]. Live cells convert calcein AM into a green fluorescent product, whereas dying/dead cells are stained with propidium iodide.
96-well plates were imaged with ImageXpress® Micro Cellular Imaging and Analysis System (Molecular Devices, Sunnyvale, CA). Twelve images per well were collected at ×10 magnification. Images were processed with MetaXpress analysis software. OPC outgrowth was calculated by the MetaExpress® “neurite outgrowth” software module which uses fluorescence and user-modified parameters to document the overall extent of processes emanating from the cell soma, regardless of size of the protrusions or the number of branches. This was previously detailed elsewhere [Cua, R. C.; Lau, L. W.; Keough, M. B.; Midha, R.; Apte, S. S.; and Yong, V. W. Overcoming neurite-inhibitory chondroitin sulfate proteoglycans in the astrocyte matrix. Glia 2013, 61 (6), 972-84]. Live-dead cell assay was calculated with MetaXpress analysis software with the “multiwavelength cell scoring”, which uses fluorescent intensity to measure co-localization of calcein AM, propidium iodide, and […]. Data from the 12 images were averaged to a single data point per well, wherein the OPC outgrowth data calculated from the MetaExpress® “neurite outgrowth” readout was divided by data from the same 12 fields of cell number that was acquired through the multiwavelength cell scoring. This provided mean outgrowth per cell per well, with four well replicates per treatment. Experiments were repeated at least twice.
A mixture was created containing propidium iodide (10 μg/ml) to stain dead cells, 10 μM Calcein AM (ThermoFisher, #C3100MP) to identify live cells, and 2 drops per ml of media of NucBlue™ Live ReadyProbes™ Reagent (ThermoFisher, #R37605) to identify nuclei. The mixture was added to plate media and incubated for 20-30 minutes at 37° C. and 5% CO2 before imaging. Excitation/emission of calcein-AM (λex 490 nm, λem 515 nm), propidium iodide (λex 535 nm, λem 617 nm), and nuclear blue (λex 350 nm, λem 461 nm) was performed using ImageXpress® Micro Cellular Imaging and Analysis System (Molecular Devices, Sunnyvale, CA) and analyzed by MetaExpress multiwavelength cell scoring program.

[2] = astrocyte conditioned media, 50 μM, 48 hours

SMILES | effect on CSPG production by astrocytes [1, 2] | toxicity on astrocytes (propidium iodide/calcein AM) (mouse astrocytes) | Reduce CSPG production [1] | effect on CSPG production by astrocytes [1]
CC(=O)NC1C(OC(C)=O)OC(COC(C)=O)[C@H](F)[C@@H]1OC(C)=O (mixture of isomers) [Compound 13, 2-Acetamido-1,3,6-tri-O-acetyl-2,4-dideoxy-4-fluoro-α/β-D-galactopyranose] | significantly reduced chondroitin sulfate GAGs; also recorded: most effectively reduced CSPG production | did not produce toxicity | – | –
CC(=O)N[C@H]1[C@H](OC(C)=O)O[C@H](COC(C)=O)[C@@H](OC(C)=O)[C@@H]1OC(C)=O [Compound 1, reference compound] | did not affect CSPG production; also recorded: did not lower CSPG production in astrocytes | – | n.s. | –
CC(=O)NC1C(OC(C)=O)OC(COC(C)=O)C(F)(F)[C@@H]1OC(C)=O (mixture of isomers) [Compound 16, 2-Acetamido-1,3,6-tri-O-acetyl-2,4-dideoxy-4,4-difluoro-α/β-D-xylo-hexopyranose] | reduced CSPG production in astrocytes more effectively than Ac-4-F-GlcNAc 3; also recorded: most effectively reduced CSPG production | did not produce toxicity | – | –
CC(=O)NC1C(O)OC(COC(C)=O)[C@@H](F)[C@@H]1OC(C)=O (mixture of isomers) [Compound 10] | – | did not produce toxicity | – | most effectively reduced CSPG production
CCCC(=O)OC1OC(COC(C)=O)[C@@H](F)[C@H](OC(C)=O)C1NC(C)=O (mixture of isomers) [Compound 8, 2-Acetamido-3,6-di-O-acetyl-1-O-butanoyl-2,4-dideoxy-4-fluoro-α/β-D-glucopyranose] | – | did not produce toxicity | – | –
CCC(=O)OC1OC(COC(C)=O)[C@@H](F)[C@H](OC(C)=O)C1NC(C)=O (stereo partly drawn) [Compound 7, 2-Acetamido-3,6-di-O-acetyl-2,4-dideoxy-4-fluoro-1-O-propanoyl-α/β-D-glucopyranose] | most effectively reduced CSPG production | did not produce toxicity | – | –
CCCC(=O)OC[C@H]1OC(O)[C@H](NC(C)=O)[C@@H](OC(=O)CCC)[C@@H]1F (stereo partly drawn) [Compound 12, 2-Acetamido-3,6-di-O-butanoyl-2,4-dideoxy-4-fluoro-α/β-3-D-glucopyranose] | did not affect CSPG synthesis; also recorded: did not lower CSPG production in astrocytes | – | n.s. | –
CC(=O)NC1C(OC(C)=O)OC(COC(C)=O)[C@@H](F)C1OC(C)=O (stereo partly shown) [Compound 3, reference compound] | most effectively reduced CSPG production | did not produce toxicity | *** (***p < 0.001) | –
